According to ChEMBL document CHEMBL5625278 (Bioorg Med Chem Lett, 2024):

Experiment: Binding affinity to LAR C1536S mutant (unknown origin) assessed as inhibition constant by Michaelis-Menten analysis
Set-up: species or system Homo sapiens

Ki: 7 µM
Structure (SMILES): CC1(C)Cc2c(O)c(C=O)c3c(c2C1)C(=O)OC(O)C3 (stereo unspecified) [ILLUDALIC ACID]
